For 27 molecules, IC50 results are on record in US9540392B2, “Thienopyrimidines” (BAYER PHARMA AKTIENGESELLSCHAFT, priority 2012, dated 2017).

The first test deals with T1, human full-length MKNK1 (Homo sapiens, UniProt Q9BUB5, T385D).
T1 construct: GST (N); purchased Carna Biosciences 02-145; host or cells: insect cells (baculovirus expression system)
T1 sequence (Q9BUB5 1-424 isoform Q9BUB5-2 T344D): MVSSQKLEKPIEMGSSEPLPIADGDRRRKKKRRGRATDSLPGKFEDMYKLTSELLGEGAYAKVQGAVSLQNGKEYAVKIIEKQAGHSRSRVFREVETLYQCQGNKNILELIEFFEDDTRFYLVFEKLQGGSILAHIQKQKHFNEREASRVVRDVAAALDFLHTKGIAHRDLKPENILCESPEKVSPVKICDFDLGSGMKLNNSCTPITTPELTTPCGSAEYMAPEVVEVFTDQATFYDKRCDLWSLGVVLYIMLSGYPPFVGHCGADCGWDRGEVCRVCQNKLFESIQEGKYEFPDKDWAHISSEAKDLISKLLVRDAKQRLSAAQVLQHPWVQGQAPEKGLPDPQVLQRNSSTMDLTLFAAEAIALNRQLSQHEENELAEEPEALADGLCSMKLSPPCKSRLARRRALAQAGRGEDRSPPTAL
Briefly: MKNK1 kinase high ATP assay (TR-FRET). It is filed as biochemical.
Details: not given
In short, it runs like this: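 Compound was preincubated 15 min at 22° C. with MKNK1 in 50 mM HEPES pH 7.5, 5 mM MgCl2, 1.0 mM DTT, then the reaction ran 30 min at 22° C. with 2 mM ATP and 0.06 μM biotinylated peptide (final).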
(In general: TR-FRET usually uses a lanthanide donor and a delayed reading to cut background.)
As to `COc1cc2[nH]ncc2cc1Nc1ncnc2sc3c(c12)CCC(C(=O)N1CCC(=O)CC1)C3` (racemic) [Example 174, (RS)-1-({4-[(6-Methoxy-1H-indazol-5-yl)amino]-5,6,7,8-tetrahydro[1]benzothieno[2,3-d]pyrimidin-7-yl}carbonyl)piperidin-4-one], the IC50 – broadly, the concentration needed to halve the response being measured – was 0.6 nM.

The test is the same for the next values; noted with them: 2 mM ATP, after preincubation with MKNK1; read-out: MKNK1 IC50 (MKNK1 high ATP).
On to `O=C(NCc1ccsc1)C1CCc2c(sc3ncnc(Nc4ccc5[nH]ncc5c4)c23)C1` (racemic) [Example 151, (RS)-4-(1H-indazol-5-ylamino)-N-(thiophen-3-ylmethyl)-5,6,7,8-tetrahydro[1]benzothieno[2,3-d]pyrimidine-7-carboxamide], for which the IC50 worked out at 3.2 nM. Take `Cn1cncc1CNC(=O)C1CCc2c(sc3ncnc(Nc4ccc5[nH]ncc5c4)c23)C1` (racemic) [Example 152, (RS)-4-(1H-indazol-5-ylamino)-N-[(1-methyl-1H-imidazol-5-yl)methyl]-5,6,7,8-tetrahydro[1]benzothieno[2,3-d]pyrimidine-7-carboxamide]: the IC50 was 16.8 nM.

For `COCCCN1CCN(C(=O)C2CCc3c(sc4ncnc(Nc5ccc6[nH]ncc6c5)c34)C2)CC1` (racemic) [Example 153, (RS)-[4-(1H-indazol-5-ylamino)-5,6,7,8-tetrahydro[1]benzothieno[2,3-d]pyrimidin-7-yl][4-(3-methoxypropyl)piperazin-1-yl]methanone], the IC50 amounted to 32.5 nM.

Take `O=C(C1CCc2c(sc3ncnc(Nc4ccc5[nH]ncc5c4)c23)C1)N1CCN(Cc2ccccn2)CC1` (racemic) [Example 154, (RS)-[4-(1H-indazol-5-ylamino)-5,6,7,8-tetrahydro[1]benzothieno[2,3-d]pyrimidin-7-yl][4-(pyridin-2-ylmethyl)piperazin-1-yl]methanone]: the IC50 amounted to 28.8 nM.

For the molecule `O=C(C1CCc2c(sc3ncnc(Nc4ccc5[nH]ncc5c4)c23)C1)N1CCN(Cc2cccnc2)CC1` (racemic) [Example 155, (RS)-[4-(1H-indazol-5-ylamino)-5,6,7,8-tetrahydro[1]benzothieno[2,3-d]pyrimidin-7-yl][4-(pyridin-3-ylmethyl)piperazin-1-yl]methanone], the IC50 amounted to 18.3 nM. `CS(=O)(=O)N1CCN(C(=O)C2CCc3c(sc4ncnc(Nc5ccc6[nH]ncc6c5)c34)C2)CC1` (racemic) [Example 156, (RS)-[4-(1H-indazol-5-ylamino)-5,6,7,8-tetrahydro[1]benzothieno[2,3-d]pyrimidin-7-yl][4-(methylsulfonyl)piperazin-1-yl]methanone]: the IC50 came out at 18.3 nM.

As to `CN(Cc1cnn(C)c1)C(=O)C1CCc2c(sc3ncnc(Nc4ccc5[nH]ncc5c4)c23)C1` (racemic) [Example 157, (RS)-4-(1H-indazol-5-ylamino)-N-methyl-N-[(1-methyl-1H-pyrazol-4-yl)methyl]-5,6,7,8-tetrahydro[1]benzothieno[2,3-d]pyrimidine-7-carboxamide], the 50% inhibitory concentration (IC50) was found to be 38.1 nM. The same measure, in the same setting: the result for `Cn1cc(CNC(=O)C2CCc3c(sc4ncnc(Nc5ccc6[nH]ncc6c5)c34)C2)cn1` (racemic) [Example 158, (RS)-4-(1H-indazol-5-ylamino)-N-[(1-methyl-1H-pyrazol-4-yl)methyl]-5,6,7,8-tetrahydro[1]benzothieno[2,3-d]pyrimidine-7-carboxamide] reads 16.5 nM; that for `O=C(C1CCc2c(sc3ncnc(Nc4ccc5[nH]ncc5c4)c23)C1)N1CC(O)C1` (racemic) [Example 159, (RS)-(3-hydroxyazetidin-1-yl)[4-(1H-indazol-5-ylamino)-5,6,7,8-tetrahydro[1]benzothieno[2,3-d]pyrimidin-7-yl]methanone], 14.4 nM. On to `COC(=O)N1CCN(C(=O)C2CCc3c(sc4ncnc(Nc5ccc6[nH]ncc6c5)c34)C2)CC1` (racemic) [Example 160, (RS)-methyl4-{[4-(1H-indazol-5-ylamino)-5,6,7,8-tetrahydro[1]benzothieno[2,3-d]pyrimidin-7-yl]carbonyl}piperazine-1-carboxylate], for which the IC50 was determined as 31.1 nM. For the molecule `CC(C)(NC(=O)C1CCc2c(sc3ncnc(Nc4ccc5[nH]ncc5c4)c23)C1)c1ccc(F)cc1` (racemic) [Example 161, (RS)-N-[2-(4-fluorophenyl)propan-2-yl]-4-(1H-indazol-5-ylamino)-5,6,7,8-tetrahydro[1]benzothieno[2,3-d]pyrimidine-7-carboxamide], the IC50 was 3.2 nM.

As to `CN(Cc1ccsc1)C(=O)C1CCc2c(sc3ncnc(Nc4ccc5[nH]ncc5c4)c23)C1` (racemic) [Example 162, (RS)-4-(1H-indazol-5-ylamino)-N-methyl-N-(thiophen-3-ylmethyl)-5,6,7,8-tetrahydro[1]benzothieno[2,3-d]pyrimidine-7-carboxamide], the IC50 was 5.3 nM. For `CN(Cc1cccn1C)C(=O)C1CCc2c(sc3ncnc(Nc4ccc5[nH]ncc5c4)c23)C1` (racemic) [Example 163, (RS)-4-(1H-indazol-5-ylamino)-N-methyl-N-[(1-methyl-1H-pyrrol-2-yl)methyl]-5,6,7,8-tetrahydro[1]benzothieno[2,3-d]pyrimidine-7-carboxamide], the IC50 is 12.4 nM. `CNC(=O)CN1CCN(C(=O)C2CCc3c(sc4ncnc(Nc5ccc6[nH]ncc6c5)c34)C2)CC1` (racemic) [Example 164, (RS)-2-(4-{[4-(1H-indazol-5-ylamino)-5,6,7,8-tetrahydro[1]benzothieno[2,3-d]pyrimidin-7-yl]carbonyl}piperazin-1-yl)-N-methylacetamide]: the IC50 is 22.5 nM. As to `Cn1ccnc1CNC(=O)C1CCc2c(sc3ncnc(Nc4ccc5[nH]ncc5c4)c23)C1` (racemic) [Example 165, (RS)-4-(1H-indazol-5-ylamino)-N-[(1-methyl-1H-imidazol-2-yl)methyl]-5,6,7,8-tetrahydro[1]benzothieno[2,3-d]pyrimidine-7-carboxamide], the IC50 was 16.8 nM. For `O=C(CN1CCN(C(=O)C2CCc3c(sc4ncnc(Nc5ccc6[nH]ncc6c5)c34)C2)CC1)NC1CC1` (racemic) [Example 166, (RS)-N-cyclopropyl-2-(4-{[4-(1H-indazol-5-ylamino)-5,6,7,8-tetrahydro[1]benzothieno[2,3-d]pyrimidin-7-yl]carbonyl}piperazin-1-yl)acetamide], the IC50 was 15.3 nM. Turning to `CN(CCN1CCCC1)C(=O)C1CCc2c(sc3ncnc(Nc4ccc5[nH]ncc5c4)c23)C1` (racemic) [Example 167, (RS)-4-(1H-indazol-5-ylamino)-N-methyl-N-[2-(pyrrolidin-1-yl)ethyl]-5,6,7,8-tetrahydro[1]benzothieno[2,3-d]pyrimidine-7-carboxamide], the IC50 was determined as 14.9 nM. With `CC(=O)N1CCN(CCNC(=O)C2CCc3c(sc4ncnc(Nc5ccc6[nH]ncc6c5)c34)C2)CC1` (racemic) [Example 168, (RS)-N-[2-(4-acetylpiperazin-1-yl)ethyl]-4-(1H-indazol-5-ylamino)-5,6,7,8-tetrahydro[1]benzothieno[2,3-d]pyrimidine-7-carboxamide], the IC50 came to 17.4 nM. On the same count and under the same terms, the result for `CC1CCN(CCN(C)C(=O)C2CCc3c(sc4ncnc(Nc5ccc6[nH]ncc6c5)c34)C2)CC1` (racemic) [Example 169, (RS)-4-(1H-indazol-5-ylamino)-N-methyl-N-[2-(4-methylpiperidin-1-yl)ethyl]-5,6,7,8-tetrahydro[1]benzothieno[2,3-d]pyrimidine-7-carboxamide] reads 11.1 nM.

With `COc1cc2[nH]ncc2cc1Nc1ncnc2sc3c(c12)CCC(C(=O)N(C)CC(F)F)C3` (racemic) [Example 170, (RS)—N-(2,2-Difluoroethyl)-4-[(6-methoxy-1H-indazol-5-yl)amino]-N-methyl-5,6,7,8-tetrahydro[1]benzothieno[2,3-d]pyrimidine-7-carboxamide], the IC50 was found to be 0.8 nM.

As for `CCN(CCO)C(=O)C1CCc2c(sc3ncnc(Nc4cc5cn[nH]c5cc4OC)c23)C1` (racemic) [Example 171, (RS)—N-Ethyl-N-(2-hydroxyethyl)-4-[(6-methoxy-1H-indazol-5-yl)amino]-5,6,7,8-tetrahydro[1]benzothieno[2,3-d]pyrimidine-7-carboxamide], the IC50 was 0.4 nM. For `COc1cc2[nH]ncc2cc1Nc1ncnc2sc3c(c12)CCC(C(=O)N(C)CCO)C3` (racemic) [Example 172, (RS)—N-(2-Hydroxyethyl)-4-[(6-methoxy-1H-indazol-5-yl)amino]-N-methyl-5,6,7,8-tetrahydro[1]benzothieno[2,3-d]pyrimidine-7-carboxamide], the IC50 turned out to be 0.4 nM. `COc1cc2[nH]ncc2cc1Nc1ncnc2sc3c(c12)CCC(C(=O)N(C)C(C)C)C3` (racemic) [Example 173, (RS)—N—Isopropyl-4-[(6-methoxy-1H-indazol-5-yl)amino]-N-methyl-5,6,7,8-tetrahydro[1]benzothieno[2,3-d]pyrimidine-7-carboxamide]: the IC50 was 0.5 nM. Regarding `COc1cc2[nH]ncc2cc1Nc1ncnc2sc3c(c12)CCC(C(=O)N1CCOCC1)C3` (racemic) [Example 175, (RS)-{4-[(6-Methoxy-1H-indazol-5-yl)amino]-5,6,7,8-tetrahydro[1]benzothieno[2,3-d]pyrimidin-7-yl}(morpholin-4-yl)methanone], the IC50 was found to be 0.5 nM. Still for that read-out and setting: the result for `COc1cc2[nH]ncc2cc1Nc1ncnc2sc3c(c12)CCC(C(=O)N1CCCCC1)C3` (racemic) [Example 176, (RS)-{4-[(6-Methoxy-1H-indazol-5-yl)amino]-5,6,7,8-tetrahydro[1]benzothieno[2,3-d]pyrimidin-7-yl}(piperidin-1-yl)methanone] reads 0.5 nM. Turning to `COc1cc2[nH]ncc2cc1Nc1ncnc2sc3c(c12)CCC(C(=O)N1CCC1)C3` (racemic) [Example 177, (RS)-Azetidin-1-yl{4-[(6-methoxy-1H-indazol-5-yl)amino]-5,6,7,8-tetrahydro[1]benzothieno[2,3-d]pyrimidin-7-yl}methanone], the IC50 is 0.4 nM.
